Data on 9 compounds can be found in paper PMC9500072, “Topical application of an irreversible small molecule inhibitor of lysyl oxidases ameliorates skin scarring and fibrosis” (Nature Communications, 2022).

By IC50 is commonly meant the point on the concentration scale where inhibition reaches its midpoint.

Where “and” joins values, the source holds several entries; their conditions need not be identical. Equal entries are not always repeated. A value given as a limit tells only on which side of the number the result lay.

The target in one data set is T1, Bovine (aorta) LOX (Bos taurus, UniProt P33072).
T1 construct: Bovine (aorta) LOX used for analog screening due to ready availability; from tissue; host or cells: bovine aorta
T1 sequence (P33072 170-418): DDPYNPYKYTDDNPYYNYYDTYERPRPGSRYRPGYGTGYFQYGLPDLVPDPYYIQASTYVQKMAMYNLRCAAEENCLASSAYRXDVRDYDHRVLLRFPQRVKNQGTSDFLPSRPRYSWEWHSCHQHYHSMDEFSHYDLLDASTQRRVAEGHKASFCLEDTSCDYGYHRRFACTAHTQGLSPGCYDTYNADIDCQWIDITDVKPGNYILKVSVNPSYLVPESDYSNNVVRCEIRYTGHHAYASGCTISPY
In words: Amplex Red oxidation assay, LOX inhibition. The class given is biochemical. To be noted: 30 min pre-incubation. On the procedure:
(§1) The measurement of the enzymatic activity of all lysyl oxidase family members was based on the detection of hydrogen peroxide with an Amplex-Red oxidation assay, as previously described; miniaturized in 384 well formats, with the appropriate combination of substrate and assay buffer for each individual enzyme. After a 30 min pre-incubation of the enzyme at 37 °C with the test compound (or with different incubation times for the time-dependency assay), one volume of reaction mixture containing 120 μM Amplex Red (AR) (Life Technologies), 1.5 U/mL horseradish peroxidase (HRP) (Sigma-Aldrich) and the specific substrate was added to each sample. The relative fluorescence units (RFU) were then measured every 2.5 min for 30 min at 37 °C, excitation 565 nm and emission 590, on a BMG Clariostar Microplate Reader. All the substrates were used at concentrations corresponding to their Km towards the corresponding enzyme, or with a range of different concentrations for the substrate competition experiments.
(§2) Lysyl oxidases assay buffer contained 1.2 M urea, 50 mM sodium borate buffer, pH 8.2 and 100 µM β-aminoproprionitrile (BAPN, Sigma-Aldrich) was used for low control.

A further data set concerns the target T2, Human recombinant LOXL2 (Homo sapiens, UniProt Q9Y4K0).
T2 construct: purchased R&D Systems
T2 sequence (Q9Y4K0 26-774): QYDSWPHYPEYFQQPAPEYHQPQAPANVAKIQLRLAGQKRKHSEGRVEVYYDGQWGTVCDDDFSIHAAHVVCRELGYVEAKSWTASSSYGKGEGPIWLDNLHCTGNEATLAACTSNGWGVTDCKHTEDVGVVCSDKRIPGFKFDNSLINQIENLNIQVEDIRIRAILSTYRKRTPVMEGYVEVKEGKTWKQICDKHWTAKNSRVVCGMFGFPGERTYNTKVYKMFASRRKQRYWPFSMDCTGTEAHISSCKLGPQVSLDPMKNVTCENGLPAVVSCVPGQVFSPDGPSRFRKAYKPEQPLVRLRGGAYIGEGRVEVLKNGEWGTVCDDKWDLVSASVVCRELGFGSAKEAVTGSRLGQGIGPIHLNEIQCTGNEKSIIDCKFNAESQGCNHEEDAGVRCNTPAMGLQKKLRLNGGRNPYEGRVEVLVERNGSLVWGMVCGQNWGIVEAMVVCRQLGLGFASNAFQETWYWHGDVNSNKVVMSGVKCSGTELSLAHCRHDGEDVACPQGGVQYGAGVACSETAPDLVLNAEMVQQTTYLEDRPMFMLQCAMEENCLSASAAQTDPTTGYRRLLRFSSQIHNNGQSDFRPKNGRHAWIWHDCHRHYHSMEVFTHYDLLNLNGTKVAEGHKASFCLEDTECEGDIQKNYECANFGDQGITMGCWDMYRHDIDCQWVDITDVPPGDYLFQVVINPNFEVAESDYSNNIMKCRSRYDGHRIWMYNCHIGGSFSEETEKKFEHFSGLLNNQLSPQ
In words: Amplex Red oxidation assay, LOXL2 inhibition. The class given is biochemical. To be noted: 30 min pre-incubation; read-out: LOXL2 IC50. As for the experimental part: (§3) For compound oxidation assays, the amount of hydrogen peroxide generated at a single concentration (30 µM) of compound relative to DMSO was measured.
as §1, §2
Recombinant human LOXL1 was expressed and purified from cDNA (GeneArt) and 10 mM putrescine was used as substrate. Recombinant human and mouse LOXL2 (R&D Systems) were challenged with 5 mM putrescine (Sigma-Aldrich) as the substrate. Rat and dog recombinant LOXL2 were amplified and purified in house from HEK-293 clones kindly provided by Dr. Fernando Rodríguez Pascual, Madrid University, and used in the same conditions as for the human form. 2 mM putrescine was used as the substrate for recombinant human LOXL3 (R&D Systems) and LOXL4 (Dr. Fernando Rodríguez Pascual, university of Madrid, Spain) assays.

Another data set addresses T3, Human Recombinant SSAO (Homo sapiens, UniProt Q16853).
T3 sequence (Q16853 1-763): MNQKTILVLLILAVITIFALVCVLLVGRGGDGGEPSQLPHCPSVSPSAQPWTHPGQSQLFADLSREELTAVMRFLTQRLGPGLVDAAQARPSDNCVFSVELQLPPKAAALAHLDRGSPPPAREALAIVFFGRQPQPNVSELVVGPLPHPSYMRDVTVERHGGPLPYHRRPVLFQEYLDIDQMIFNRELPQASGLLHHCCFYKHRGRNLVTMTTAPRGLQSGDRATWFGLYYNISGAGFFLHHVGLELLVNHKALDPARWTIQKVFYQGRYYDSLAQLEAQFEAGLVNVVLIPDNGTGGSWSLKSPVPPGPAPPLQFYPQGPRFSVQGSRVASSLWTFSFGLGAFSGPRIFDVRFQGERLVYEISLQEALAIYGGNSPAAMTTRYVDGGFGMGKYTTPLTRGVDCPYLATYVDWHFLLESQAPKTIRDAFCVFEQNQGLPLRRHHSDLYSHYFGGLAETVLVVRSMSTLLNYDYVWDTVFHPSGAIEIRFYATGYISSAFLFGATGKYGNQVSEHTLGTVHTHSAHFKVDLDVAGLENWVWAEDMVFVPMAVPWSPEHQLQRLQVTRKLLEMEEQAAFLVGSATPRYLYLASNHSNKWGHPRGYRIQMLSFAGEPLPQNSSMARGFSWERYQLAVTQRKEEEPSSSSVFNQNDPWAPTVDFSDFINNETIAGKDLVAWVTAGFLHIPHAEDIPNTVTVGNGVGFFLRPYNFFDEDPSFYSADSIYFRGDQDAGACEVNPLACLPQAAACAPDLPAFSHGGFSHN
In words: Compound oxidation assay (substrate propensity) by SSAO. To be noted: single concentration 30 µM. It counts as biochemical. As for the experimental part: as §3
Data are expressed as mean ± SEM. Subsequent statistical analysis was performed with unpaired two-sided Student’s t tests. *p < 0.05, **p < 0.01, ***p < 0.001and ****p < 0.0001. Source data are provided as a Source Data file.
This assay determines the substrate propensity of a compound relative to background (dimethyl sulfoxide only). Compound oxidation by rhSSAO was measured by fluorometric assay. Briefly, rhSSAO was incubated for 2 h at 37 °C in HEPES buffer before the addition of an equal volume of Amplex Red ([…]), horseradish peroxidase (4 U/ml), and test compound in the same buffer. The kinetics of the formation of resorufin was measured immediately using Optima reader (BMG Labtech GmbH, Ortenburg, Germany), at 37 °C.

Data set [1] is described as follows: Franz Cell skin permeability assay. It counts as in vitro ADME, human. To be noted: average of 3 samples.
The subject of another data set is chicken lysyl oxidase. The arrangement: method as in earlier work. To be noted: cited from earlier work.

Regarding `NC/C=C(\F)COc1ccccc1` [compound 4], the 50% inhibitory concentration (IC50) on Bovine (aorta) LOX was 8.4 µM and 8 µM; at Human recombinant LOXL2, 1100 nM.
With `NC/C=C(\F)CSc1ccccc1` [compound 7], the IC50 on Bovine (aorta) LOX worked out at 8.5 µM; on Human recombinant LOXL2, 1100 nM. Further, the “Oxidation by SSAO (hydrogen peroxide generated relative to DMSO)” value on Human Recombinant SSAO is listed as 68.
Take `NC/C=C(/F)COc1ccccc1` [compound 3]: the IC50 was 13.5 µM at Bovine (aorta) LOX and 2900 nM on Human recombinant LOXL2. Also, the “Oxidation by SSAO (hydrogen peroxide generated relative to DMSO)” value at Human Recombinant SSAO worked out at 12.0.
As for `NC/C=C(\F)CNc1ccccc1` [compound 6], the values for the IC50 on Bovine (aorta) LOX and at Human recombinant LOXL2 were 13.6 µM and 3400 nM, respectively. Further, on Human Recombinant SSAO, the “Oxidation by SSAO (hydrogen peroxide generated relative to DMSO)” value came to 5.5.
As to `NC/C(=C\F)COc1ccccc1` [compound 2], the IC50 on Bovine (aorta) LOX was > 30 µM; at Human recombinant LOXL2, 8700 nM. In addition, the “Oxidation by SSAO (hydrogen peroxide generated relative to DMSO)” value at Human Recombinant SSAO turned out to be 1.1.
Take `NC/C=C(\F)C(F)(F)S(=O)(=O)c1ccccc1` [Samples 6302]: the “Avg. 6302 concentration” value in data set [1] (0hr) came to 0 µM; in data set [1] (2hr) it was 0.017 µM; in data set [1] (4hr), 0.042 µM; in data set [1] (6hr) it was 0.166 µM; in data set [1] (20hr), 1.742 µM. The Avg.6302 concentration in data set [1] (0hr) came to 0.000 ng/mL; in data set [1] (2hr) it was 4.559 ng/mL; in data set [1] (4hr), 11.109 ng/mL; in data set [1] (6hr), 44.135 ng/mL; in data set [1] (20hr) it was 462.127 ng/mL.
As to `NC/C=C(\F)CN1CCc2ccccc21` [compound 5], the IC50 amounted to 10.8 µM at Bovine (aorta) LOX and 900 nM on Human recombinant LOXL2. Besides, the “Oxidation by SSAO (hydrogen peroxide generated relative to DMSO)” value on Human Recombinant SSAO is given as 2.6.
As to `NC/C(=C/F)CCc1ccc(F)cc1` [Mofegiline, mofegiline, reference compound], the results for the IC50 at Bovine (aorta) LOX and at Human recombinant LOXL2 were 56 µM and > 10000 nM, respectively. Besides, the “Oxidation by SSAO (hydrogen peroxide generated relative to DMSO)” value on Human Recombinant SSAO is 1.0. Further, the “inhibition of chicken lysyl oxidase activity” value in the data set with chicken lysyl oxidase is “modest inhibitor”.
On to `NCC(=CF)COc1ccccc1` [compound 1], for which the IC50 was > 30 µM on Bovine (aorta) LOX and 9500 nM on Human recombinant LOXL2. The “Oxidation by SSAO (hydrogen peroxide generated relative to DMSO)” value at Human Recombinant SSAO is given as 1.1.
